Article PMC11822664, “First‐In‐Human Dose Finding Study of Venadaparib (IDX‐1197), a Potent and Selective PARP Inhibitor, in Patients With Advanced Solid Tumors” (Cancer Medicine, 2025)
pIC50: −log10 of the molar value.

Assays:
[1] = Plasma pharmacokinetics, noncompartmental analysis (Day 1 and Day 14); assay type: in vivo, human; conditions: for Cmax,ss / T1/2β / Vd,ss / Tmax,ss / AUCinf,ss / AUClast,ss: day 14; for Cmax,ss / T1/2β / Vd,ss / AUCinf,ss / AUClast,ss: mean±SD; for Tmax,ss: median (min-max)
Procedure: (§1) Pharmacokinetic and pharmacodynamic studies were performed during the first cycle of treatment. Plasma samples were analyzed for venadaparib concentration using liquid‐liquid extraction followed by high‐performance liquid chromatography, with detection by mass spectrometry. The plasma concentration–time data were analyzed using noncompartmental analysis (WinNonLin, version 8.0, SAS version 9.4 and R version 3.6.3) to derive pharmacokinetic parameters after the first dose (single‐dose parameters) and after the dose on Day 14 (multiple‐dose parameters). Pharmacodynamic studies were performed by evaluating Poly (ADP‐ribose) in peripheral blood mononuclear cells and quantifying tumor‐tissue lysates using the HT PARP in vivo Pharmacodynamic ELISA Kit II (R&D Systems, 4520‐096‐K).

PARP [2] = assay: Pharmacodynamics: Poly (ADP-ribose) in peripheral blood mononuclear cells (ELISA); assay type: in vivo, human
Procedure: as §1

PARP [3] = assay: Pharmacodynamics: Poly (ADP-ribose) in tumor-tissue lysates (ELISA); assay type: in vivo, human
Procedure: as §1

OVCAR‐3 = test system: OVCAR‐3; parameters: method as in PMID 36808277; conditions: HR-deficient ovarian cancer cell line OVCAR-3 ref 21; cited from earlier work
TOV‐21G = test system: TOV‐21G; parameters: method as in PMID 36808277; conditions: HR-deficient ovarian cancer cell line TOV-21G ref 21; cited from earlier work
[4] = Cohort 1: 2 mg once daily, 2 weeks on 1 week off, n=3
[5] = Cohort 2: 5 mg once daily, 2 weeks on 1 week off, n=3
[6] = Cohort 3: 10 mg once daily, 2 weeks on 1 week off, n=3
[7] = Cohort 4: 20 mg once daily, 2 weeks on 1 week off, n=3
[8] = Cohort 5: 20 mg once daily continuously, n=3
[9] = Cohort 6: 40 mg once daily continuously, n=3
[10] = Cohort 7: 80 mg once daily continuously, n=3
[11] = Cohort 8: 120 mg once daily continuously, n=3
[12] = Cohort 9: 160 mg once daily continuously, n=4
[13] = Cohort 10: 240 mg once daily continuously, n=3

SMILES: O=C(c1cc(Cc2n[nH]c(=O)c3ccccc23)ccc1F)N1CC(CNC2CC2)C1 [venadaparib, Venadaparib]
- Cmax,ss [1, 4]: 164.83±158.82 (96.4%) [55.40-347.00] ng/mL
- T1/2β [1, 4]: 10.12±3.11 (30.8%) [6.53-12.16] h
- Vd,ss [1, 4]: 26.55±15.98 (60.2%) [9.51-41.19] L
- Tmax,ss [1, 4]: 1.95 (0.50-3.00) h
- AUCinf,ss [1, 5]: 3471.41±2661.23 (76.7%) [854.73-6175.06] h*ug/L
- AUClast,ss [1, 5]: 2104.75±1410.01 (67.0%) [709.76-3529.30] h*ug/L
- Cmax,ss [1, 5]: 274.27±162.91 (59.4%) [90.80-402.00] ng/mL
- T1/2β [1, 5]: 17.56±7.23 (41.1%) [9.22-21.87] h
- Vd,ss [1, 5]: 49.88±26.44 (53.0%) [25.23-77.80] L
- Tmax,ss [1, 5]: 2.92 (2.00-3.00) h
- AUCinf,ss [1, 6]: 7870.90±9667.28 (122.8%) [1452.44-18989.55] h*ug/L
- AUClast,ss [1, 6]: 4925.17±5146.81 (104.5%) [1287.46-10814.03] h*ug/L
- Cmax,ss [1, 6]: 484.00±194.58 (40.2%) [269.00-648.00] ng/mL
- T1/2β [1, 6]: 12.01±4.70 (39.1%) [8.11-17.22] h
- Vd,ss [1, 6]: 47.43±33.75 (71.2%) [13.09-80.56] L
- Tmax,ss [1, 6]: 1.00 (1.00-6.00) h
- AUCinf,ss [1, 7]: 4133.27±1804.89 (43.7%) [2714.79-6164.85] h*ug/L
- AUClast,ss [1, 7]: 3664.78±1671.01 (45.6%) [2268.75-5516.31] h*ug/L
- Cmax,ss [1, 7]: 462.00±198.65 (43.0%) [240.00-623.00] ng/mL
- T1/2β [1, 7]: 8.39±1.33 (15.8%) [7.43-9.91] h
- Vd,ss [1, 7]: 68.11±35.43 (52.0%) [34.78-105.328 L
- Tmax,ss [1, 7]: 3.00 (2.08-4.00) h
- AUCinf,ss [1, 8]: 19641.86±12129.06 (61.8%) [9377.20-33025.96] h*ug/L
- AUClast,ss [1, 8]: 14356.35±8586.68 (59.8%) [7554.53-24004.86] h*ug/L
- Cmax,ss [1, 8]: 1372.33±691.19 (50.4%) [867.00-2160.00] ng/mL
- T1/2β [1, 8]: 12.95±2.11 (16.3%) [10.89-15.11] h
- Vd,ss [1, 8]: 23.71±11.37 (48.0%) [11.24-33.51] L
- Tmax,ss [1, 8]: 3.00 (2.00-3.00) h
- AUCinf,ss [1, 9]: 20437.84±21732.92 (106.3%) [4443.15-45181.74] h*ug/L
- AUClast,ss [1, 9]: 15650.44±15761.44 (100.7%) [4158.86-33618.37] h*ug/L
- T1/2β [1, 9]: 10.05±3.49 (34.7%) [6.03-12.16] h
- Vd,ss [1, 9]: 50.82±32.01 (63.0%) [15.65-78.27] L
- Tmax,ss [1, 9]: 2.00 (2.00-4.00) h
- AUCinf,ss [1, 10]: 35855.66±11046.67 (30.8%) [28487.65-48557.05] h*ug/L
- AUClast,ss [1, 10]: 29755.39±5857.45 (19.7%) [25647.39-36462.67] h*ug/L
- T1/2β [1, 10]: 9.16±2.33 (25.4%) [7.54-11.82] h
- Vd,ss [1, 10]: 29.77±1.44 (4.8%) [28.10-30.63] L
- Tmax,ss [1, 10]: 0.50 (0.50-3.00) h
- AUCinf,ss [1, 11]: 43329.91±51306.71 (118.4%) [9826.55-102396.16] h*ug/L
- AUClast,ss [1, 11]: 34807.85±37475.34 (107.7%) [9506.28-77860.52] h*ug/L
- Cmax,ss [1, 11]: 3650.00±3170.05 (86.9%) [1370.00-7270.00] ng/mL
- T1/2β [1, 11]: 7.15±3.96 (55.4%) [4.86-11.73] h
- Vd,ss [1, 11]: 50.97±33.01 (64.8%) [19.83-85.58] L
- Tmax,ss [1, 11]: 2.08 (2.00-3.00) h
- AUCinf,ss [1, 12]: 64897.81±24747.53 (38.1%) [35388.15-95105.59] h*ug/L
- AUClast,ss [1, 12]: 54295.35±20528.36 (37.8%) [31921.97-80064.80] h*ug/L
- Cmax,ss [1, 12]: 5860.00±2493.69 (42.6%) [3610.00-8190.00] ng/mL
- T1/2β [1, 12]: 9.44±1.74 (18.4%) [7.58-11.70] h
- Vd,ss [1, 12]: 37.11±12.87 (34.7%) [21.26-49.44] L
- Tmax,ss [1, 12]: 1.50 (1.00-3.02) h
- AUCinf,ss [1, 13]: 57242.36±29434.12 (51.4%) [25260.40-83194.93] h*ug/L
- AUClast,ss [1, 13]: 51458.84±25578.53 (49.7%) [23517.49-73719.38] h*ug/L
- Cmax,ss [1, 13]: 4650.00±1574.20 (33.9%) [2840.00-5700.00] ng/mL
- T1/2β [1, 13]: 6.66±0.54 (8.1%) [6.04-7.00] h
- Vd,ss [1, 13]: 50.00±28.79 (57.6%) [28.90-82.80] L
- Tmax,ss [1, 13]: 3.05 (1.97-4.00) h
- mean plasma clearance rate ([1]; patients): 6.3 L per hour
- mean volume of distribution ([1]; patients): 75 L
- half-life ([1]; plasma, biphasic decline): approximately 8.7 h
- PAR inhibitory effect in PBMC (PARP [2]; 2 to 120 mg once daily): persistent PAR inhibitory effect up to 24 h
- Inhibition of PARP compared to baseline (PARP [2]; cells from patients treated with 10 mg or higher daily): more than 90%
- PAR inhibitory effect (PARP [3]; from 10 mg/d, based on tumor samples): ≥ 90%
- PARP inhibition in tissue biopsies (PARP [3]; patients receiving 10, 20 and 40 mg once daily): Significant PARP inhibition
- pIC50 (OVCAR‐3): > 8.00
- pIC50 (TOV‐21G): > 8.00
